The target in assay [1] is human FTD Type A sarkosyl-insoluble brain extracts (Homo sapiens, UniProt Q13148). The assay can be described thus: Kd determination by micro-radiobinding assay on FTD Type A extracts. It counts as binding. The note with it: tritiated compound 1.29 to 300 nM. How it is done: (§1) Human brain extracts were prepared as described in Laferriere et al., 2019, Nature Neurosc. A sample of brain tissue (frontal or temporal cortex) was homogenized at 1:4 (w/v) ratio in the homogenization-solubilization (HS) buffer at 4° C. using tissue homogenizer (Precellys) with CKmix homogenization tubes. The following sequence was used for homogenization: 3 cycles of 30 seconds at 5000 rpm (with 15 seconds pause between each cycle). Homogenized samples were aliquoted and stored at −80° C. in 1.5 mL low protein binding tubes.
(§2) Brain homogenates were thawed on ice and resuspended in HS buffer to obtain a final concentration of 2% sarkosyl, 1 unit/μL Benzonase and 1 mM MgCl2. The samples were then incubated at 37° C. under constant shaking at 600 rpm on a thermomixer for 45 minutes (min). The supernatants were collected in a new tube (sarkosyl-soluble fraction, S1). The pellet was resuspended in 1000 μL of myelin floatation buffer and centrifuged at 20,000 g for 60 min at 4° C. The supernatant was carefully removed to remove all the floating lipids. This step was repeated if all the lipids could not be removed in a single step. The pellet was subsequently washed with Phosphate-Buffered Saline (PBS) and centrifuged for 30 min at 20,000 g at 4° C. The final pellet was resuspended in 200 μL PBS and stored at −80° C. (sarkosyl-insoluble fraction). The samples were analyzed by immunoblotting in denaturing conditions.
Human FTD sarkosyl-insoluble brain extracts were spotted onto microarray slides. The slides were incubated with [^3H]-Compounds 1, 7, 8, 9, 15, 16 and 17 in a range of concentrations, varying from 1.29 to 300 nM. After incubation, slides were washed and scanned by a real-time autoradiography system (BeaQuant, ai4R). Quantification of the signal was performed by using the Beamage image analysis software (ai4R). Non-specific signal was determined with an excess of non-radiolabeled compound 1, 7, 8, 9, 15, 16 and 17 (1 μM), respectively, and specific binding was calculated by subtracting the non-specific signal from the total signal.
The Kd (Dissociation constant) and R^2 (parameter ranging between 0.0 and 1.0 that quantifies the goodness of fit, and the best curve fit obtained with value of 1.0) were obtained by fitting the specific binding data with non-linear regression analysis, using a one-site specific binding model in GraphPad Prism8.

The target of the next assay is TDP-43 aggregates (Homo sapiens, UniProt Q13148). The assay can be described thus: Classical autoradiography in brain sections from patients with FTD. It counts as binding. As for the experimental part:
All tissues were collected from donors for or from whom a written informed consent for a brain autopsy and the use of the material and clinical information for research purposes had been obtained by the respective brain banks. All samples were anonymized and coded. Frozen brain tissue blocks with confirmed TDP-43 pathology upon autopsy were processed using a cryotome to generate sections of 10 μm in thickness and mounted on glass slides. Sections were kept at −80° C. until use.
Brain sections were fixed for 15 minutes at 4° C. with 4% formaldehyde on ice and washed three times for eight minutes with 1×PBS at RT. Sections were blocked in assay buffer for 30 minutes (50 mM Tris-HCl, 0.9% NaCl+0.1% BSA). Cold test compound (Compound 1, Compound 8 or Compound 17) was diluted in assay buffer to 4 μM and applied on half of the sections for 40 minutes at RT to determine non-specific binding. The remaining half of the sections were only incubated with assay buffer (total binding). Following this incubation, an equal volume of the corresponding tritiated compound (i.e. [^3H]-Compound 1, [^3H]-Compound 8 or [^3H]-Compound 17, respectively), diluted to 20 nM (for [^3H]-Compound 1 and [^3H]-Compound 8) or 10 nM ([^3H]-Compound 17) or increasing concentration from 0.1 to 200 nM (for [^3H]-Compound 1 and [^3H]-Compound 17), was added on sections and incubated for 2 hours at RT and then washed as follows: once in ice-cold 50 mM Tris-HCl pH 7.4 buffer for one minute, twice in ice-cold PBS for one minute, once in ice-cold 50 mM Tris-HCl pH 7.4 buffer for one minute and finally rinsed briefly in ice-cold distilled water.
Sections were subsequently dried under a stream of air and mounted with a copper-based adhesive strip. Bound radioactivity was quantified by exposing the slides in a real-time autoradiography system (Beaquant™ AI4R) for 2 hours, with measurement settings configured for tritium. Beavacq software (AI4R) was used to acquire the image which was subsequently quantified using Beamage image analysis software (AI4R). Specific binding (non-specific binding subtracted from total) and displacement (total binding divided by non-specific) were calculated. Bar graphs were generated using GraphPad Prism. For Kd determination on brain sections, the specific binding data were fitted with a non-linear regression analysis using a one-site specific binding model in GraphPad Prism.

The target in a further assay is T1, Abeta (Homo sapiens, UniProt P05067).
T1 construct: an AD donor with confirmed burden of Tau and Abeta aggregates; from tissue; host or cells: frontal cortex of a human AD donor, Triton/sucrose-insoluble fraction
Kind of assay: Radiobinding competition assay using Abeta reference compound on AD insoluble fraction of brain homogenates. It counts as binding. The note with it: against [3H]Abeta reference compound; cells printed in μM; read-out: Ki on AD brain homogenates. As for the experimental part:
Approximately 4 g of frozen tissue block from frontal cortex brain region was used from an AD donor with confirmed burden of Tau and Abeta aggregates. The tissue was homogenized in three volumes (1:3 w/v) of high salt buffer (50 mM Tris-HCl pH 7.5, 750 mM NaCl, 5 mM EDTA) supplemented with protease inhibitors (Complete; Roche 11697498001) at 4° C. with a glass Dounce homogenizer. The homogenate was transferred into polycarbonate centrifuge bottles (16×76 mm; Beckman 355603) and centrifuged at 100,000×g (38,000 RPM) in an ultracentrifuge (Beckman, XL100K) for 60 minutes at 4° C. using a pre-cooled 70.1 rotor (Beckman, 342184). Pellets were resuspended in high salt buffer supplemented with 1% Triton X-100 and homogenized at 4° C. with a syringe. The homogenates were centrifuged again at 100,000×g (38,000 RPM, 70.1 rotor) for 60 minutes at 4° C. Pellets were resuspended in high salt buffer supplemented with 1% Triton X-100 and 1 M sucrose and homogenized at 4° C. with a syringe. The homogenates were centrifuged at 100,000×g (38,000 RPM, 70.1 rotor) for 60 minutes at 4° C. The resulting pellets containing insoluble fraction were resuspended in PBS (1:2 w/v relative to starting tissue weight), aliquoted and stored at −80° C. until use.
The reaction was performed in assay buffer (50 mM Tris pH 7.5 in 0.9% NaCl, 0.1% BSA) and incubated for two hours at room temperature (RT). Samples in duplicate were then filtered under vacuum in GF/C filter plates (PerkinElmer) to trap the aggregates with the bound radioligand and washed with 100 μL ice-cold 50 mM Tris pH 7.5. The GF/C filters were then dried and scintillation liquid (UltimateGold, PerkinElmer, 6013151) was added in each well. The filters were analyzed on a Microbeta2 scintillation counter (PerkinElmer). Values for the maximal signal were obtained in the absence of non-radiolabeled compound, while 100% displacement was obtained using 1 μM of non-radiolabeled reference compound. Ki values were calculated by nonlinear regression, using a one site—fit Ki model in Prism V7 (GraphPad).

In assay [2] the target is T2, Human brain derived TDP-43 aggregates (Homo sapiens, UniProt Q13148).
T2 construct: Human FTD sarkosyl-insoluble brain extracts were spotted onto microarray slides
The assay can be described thus: Micro-radiobinding competition assay for binding affinity to TDP-43. The conditions noted are these: for Ki: 0.24 nM to 2 μM vs tritiated reference ligand at 40 nM; for Human brain derived TDP-43 aggregates Mean % competition at 250 nM: non-radiolabeled compound at 250 nM vs tritiated reference ligand at 40 nM; for Human brain derived TDP-43 aggregates Mean % competition at 250 nM / Human brain derived TDP-43 aggregates Mean % competition at 2 μM: FTD sarkosyl-insoluble brain extracts; for Human brain derived TDP-43 aggregates Mean % competition at 2 μM: non-radiolabeled compound at 2 μM vs tritiated reference ligand at 40 nM. How it is done:
as §1, §2
Human FTD sarkosyl-insoluble brain extracts were spotted onto microarray slides. The slides were incubated with a tritiated reference ligand at 40 nM, and the example compounds (non-radiolabeled) at 2 μM and 250 nM. […] After incubation, slides were washed and scanned by a real-time autoradiography system (BeaQuant, ai4R). Quantification of the signal was performed by using the Beamage image analysis software (ai4R). Non-specific signal was determined with an excess of non-radiolabeled reference compound (2 μM) and specific binding was calculated by subtracting the non-specific signal from the total signal. Competition was calculated as percent, where 0% was defined as the specific binding in the presence of vehicle and 100% as the values obtained in the presence of excess of the non-radiolabeled reference compound. Ki values were calculated in GraphPad Prism8 by applying a nonlinear regression curve fit using a one site, specific binding model. Measurements were performed with at least two technical replicates in the two-concentration competition experiment and with one technical replicate in the experiments including a range of concentrations. For compounds tested in more than one experiment, the mean of the replicates or Ki values in independent experiments is reported.

Setting [3] is: total binding divided by non-specific binding, grey matter, self-block with cold compound.

Chain of human FTD Type A sarkosyl-insoluble brain extracts (Q13148 263-414 limits assumed): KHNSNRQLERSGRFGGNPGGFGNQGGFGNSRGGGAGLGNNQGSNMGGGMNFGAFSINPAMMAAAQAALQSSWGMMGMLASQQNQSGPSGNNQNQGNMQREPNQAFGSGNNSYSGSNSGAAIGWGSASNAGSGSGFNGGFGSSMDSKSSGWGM
Chain of TDP-43 aggregates (Q13148 whole entry): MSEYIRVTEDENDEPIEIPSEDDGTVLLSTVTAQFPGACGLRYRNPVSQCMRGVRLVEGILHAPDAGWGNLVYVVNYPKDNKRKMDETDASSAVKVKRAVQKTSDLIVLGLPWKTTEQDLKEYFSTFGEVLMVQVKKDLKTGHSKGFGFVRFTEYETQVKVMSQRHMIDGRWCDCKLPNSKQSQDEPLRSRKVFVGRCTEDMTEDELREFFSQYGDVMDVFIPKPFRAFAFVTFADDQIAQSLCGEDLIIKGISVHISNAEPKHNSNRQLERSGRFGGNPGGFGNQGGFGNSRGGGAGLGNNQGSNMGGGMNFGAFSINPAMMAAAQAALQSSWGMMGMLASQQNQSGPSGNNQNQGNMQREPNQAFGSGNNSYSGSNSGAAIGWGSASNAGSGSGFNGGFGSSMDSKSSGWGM
T1 sequence (P05067 672-713 limits assumed): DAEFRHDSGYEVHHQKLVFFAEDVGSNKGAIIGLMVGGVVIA
T2 sequence (Q13148 261-414 limits assumed): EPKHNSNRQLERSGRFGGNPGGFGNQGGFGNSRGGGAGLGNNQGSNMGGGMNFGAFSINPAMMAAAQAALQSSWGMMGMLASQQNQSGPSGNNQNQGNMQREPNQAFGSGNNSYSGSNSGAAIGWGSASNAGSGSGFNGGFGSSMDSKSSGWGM

With `[3H]c1cncc(N2CCc3nc(-c4cc([3H])c(N5CC[C@H](F)C5)nc4F)sc3C2=O)c1` [[^3H]-Compound 8, tritiated (S)-2-(2-fluoro-6-(3-fluoropyrrolidin-1-yl)pyridin-3-yl)-5-(pyridin-3-yl)-6,7-dihydrothiazolo[5,4-c]pyridin-4(5H)-one], the Kd in assay [1] was 47 ± 8 nM.

Take `O=C1c2sc(-c3ccc(N4CC[C@H](F)C4)nc3F)nc2CCN1c1cccnc1` [Compound 8, (S)-2-(2-fluoro-6-(3-fluoropyrrolidin-1-yl)pyridin-3-yl)-5-(pyridin-3-yl)-6,7-dihydrothiazolo[5,4-c]pyridin-4(5H)-one]: the “Displacement on FTLD-TDP type A and B compared to non-demented control” value at TDP-43 aggregates (classical autoradiography) was “increased displacement”. For the same compound, on TDP-43 aggregates (setting [3]), the “cARG displacement on FTLD-TDP Type A case” value is given as 3.0, the “cARG displacement on FTLD-TDP Type B case” value is 3.3 and the “cARG displacement on non-demented control” value is given as 2.3. For the same compound, the Ki on Abeta is above 1 µM. Besides, in assay [2], the Ki turned out to be 73 nM, the “Human brain derived TDP-43 aggregates Mean % competition at 250 nM” value was found to be 55% and the “Human brain derived TDP-43 aggregates Mean % competition at 2 μM” value was found to be 73%.

As for `O=C1c2sc(-c3ccc(N4CC[C@H](F)C4)nc3F)nc2CCN1c1ncccn1` [[^3H]-Compound 16], binding in assay [1] was put at a Kd of 24 ± 3 nM.

For the compound `O=C1c2sc(-c3ccc(N4CCC[C@@H](F)C4)nc3F)nc2CCN1c1cnsc1` [Compound 24, (R)-2-(2-fluoro-6-(3-fluoropiperidin-1-yl)pyridin-3-yl)-5-(isothiazol-4-yl)-6,7-dihydrothiazolo[5,4-c]pyridin-4(5H)-one], at Abeta, the inhibition constant (Ki) was above 1 µM. Besides, in assay [2], the inhibition constant Ki was determined as 65 nM, the “Human brain derived TDP-43 aggregates Mean % competition at 250 nM” value is reported as 61% and the “Human brain derived TDP-43 aggregates Mean % competition at 2 μM” value is 83%.

Consider `O=C1c2sc(-c3ccc(N4CC[C@@H](F)C4)nc3F)nc2CCN1c1ncccn1` [Compound 15, 2-[2-fluoro-6-[(3R)-3-fluoropyrrolidin-1-yl]-3-pyridyl]-5-pyrimidin-2-yl-6,7-dihydrothiazolo[5,4-c]pyridine-4-one], for which, at Abeta, the Ki is above 1 µM. Also, in assay [2], the affinity corresponds to a Ki of 11 nM, the “Human brain derived TDP-43 aggregates Mean % competition at 250 nM” value came out at 62% and the “Human brain derived TDP-43 aggregates Mean % competition at 2 μM” value was found to be 86%.

With `O=C1c2sc(-c3ccc(N4CC[C@H](F)C4)nc3F)nc2CCN1c1cnsc1` [Compound 25, (S)-2-(2-fluoro-6-(3-fluoropyrrolidin-1-yl)pyridin-3-yl)-5-(isothiazol-4-yl)-6,7-dihydrothiazolo[5,4-c]pyridin-4(5H)-one], the inhibitory constant (Ki) at Abeta was above 1 µM. In assay [2], affinity was put at a Ki of 48 nM, the “Human brain derived TDP-43 aggregates Mean % competition at 250 nM” value is listed as 78% and the “Human brain derived TDP-43 aggregates Mean % competition at 2 μM” value is on record as 96%.

For the compound `N#Cc1c(N)cccc1N1CCc2nc(-c3ccc(N4CCC[C@H](F)C4)nc3F)sc2C1=O` [Compound 31], at Abeta, the Ki was above 1 µM. Moreover, in assay [2], affinity was put at a Ki of 4 nM, the “Human brain derived TDP-43 aggregates Mean % competition at 250 nM” value was determined as 62% and the “Human brain derived TDP-43 aggregates Mean % competition at 2 μM” value turned out to be 70%.

`[3H]c1cc(N2CCc3nc(-c4cc([3H])c(N5CC[C@@H](F)C5)nc4F)sc3C2=O)ccn1` [[^3H]-Compound 7, Tritiated (R)-2-(2-fluoro-6-(3-fluoropyrrolidin-1-yl)pyridin-3-yl)-5-(pyridin-4-yl)-6,7-dihydrothiazolo[5,4-c]pyridin-4(5H)-one] came in with a Kd in assay [1] of 39 ± 11 nM.

In the case of `[3H]c1cnc(N2CCc3nc(-c4cc([3H])c(N5CC[C@@H](F)C5)nc4F)sc3C2=O)nc1` [[^3H]-Compound 15, Tritiated 2-[2-fluoro-6-[(3R)-3-fluoropyrrolidin-1-yl]-3-pyridyl]-5-pyrimidin-2-yl-6,7-dihydrothiazolo[5,4-c]pyridine-4-one], the affinity in assay [1], expressed as Kd, was 21 ± 7 nM.

Usually Kd stands for the free concentration of one partner at which half of the binding sites on the other are occupied at equilibrium, for simple one-to-one binding. Read a high Kd as a looser complex. One may read the Ki as a dissociation constant, usually derived from enzyme kinetics or from competition with a known ligand.
